Measurements reported in patent US20240294541A1, “COMPOUNDS CONSTITUTING C20-MODIFIED SALINOMYCIN DERIVATIVES, A METHOD FOR OBTAINING THE SAME, A COMPOSITION CONTAINING THE SAME AND A USE OF SAID COMPOUNDS” (FILECLO SPOLKA Z OGRANICZONA ODPOWIEDZIALNOSCIA, priority 2021, published 2024).
Read-outs that look alike come from different tables or passages of the source.

Key:
Format in all cases: cell-based
[1] = system: A2780Cis (cisplatin-resistant human ovarian cancer); test: In vitro cytotoxicity, SRB assay, A2780Cis; details: for IC50: Homo sapiens, A2780cis, read-out: IC50 (nM) A2780Cis
[2] = system: MIA PaCa-2 (human pancreatic cancer); test: cells; details: for SI MIA PaCa-2: selectivity coefficient vs normal BALB/3T3 fibroblasts
Hs294T (human melanoma) = test: cells; details: for IC50: Hs 294T, read-out: IC50 (nM) Hs294T; for SI Hs294T: selectivity coefficient vs normal BALB/3T3 fibroblasts
[3] = system: NCI-H358 (human lung cancer); test: cells; details: for SI NCI-H358: selectivity coefficient vs normal BALB/3T3 fibroblasts
[4] = system: BALB/3T3 (normal mouse fibroblasts); test: In vitro cytotoxicity, SRB assay, normal BALB/3T3 fibroblasts
[5] = system: SNU-16 (human gastric cancer); test: cells; details: for SI SNU-16: selectivity coefficient vs normal BALB/3T3 fibroblasts
[6] = system: PLC/PRF/5 (human liver cancer); test: cells; details: for SI PLC/PRF/5: selectivity coefficient vs normal BALB/3T3 fibroblasts
[7] = system: MV-4-11 (human biphenotypic leukaemia); test: In vitro cytotoxicity, MTT assay, MV-4-11; details: for IC50: Homo sapiens, MV4-11, read-out: IC50 (nM) MV4-11
[8] = Table 4, MIA PaCa-2 human pancreatic cancer cells, read-out: IC50 (nM) MIA PaCa-2
[9] = Table 4, Hs294T human melanoma cells
[10] = Table 4, NCI-H358 human lung cancer cells, read-out: IC50 (nM) NCI-H358
[11] = Table 4, BALB/3T3 normal mouse fibroblasts, read-out: IC50 (nM) BALB3T3 normal cells
[12] = Table 4, SNU-16 human gastric cancer cells, read-out: IC50 (nM) SNU-16
[13] = Table 4, PLC/PRF/5 human liver cancer cells, read-out: IC50 (nM) PLC/PRF/5

Row | Compound | SI A2780Cis [1] | IC50 [1] | IC50 [2, 8] | SI MIA PaCa-2 ([2]; Table 4) | IC50 (Hs294T (human melanoma); [9]) | SI Hs294T (Hs294T (human melanoma); Table 4) | IC50 [3, 10] | SI NCI-H358 ([3]; Table 4) | IC50 [4, 11] | IC50 [5, 12] | SI SNU-16 ([5]; Table 4) | IC50 [6, 13] | SI PLC/PRF/5 ([6]; Table 4) | SI MV4-11 [7] | IC50 [7] | other results
1 | CC[C@@H](C(=O)[C@@H](C)[C@@H](O)[C@H](C)[C@@H]1O[C@@H]([C@@H](CC)C(=O)O)CC[C@@H]1C)[C@H]1O[C@]2(C=C[C@@H](NC(N)=O)[C@]3(CC[C@@](C)([C@H]4CC[C@](O)(CC)[C@H](C)O4)O3)O2)[C@H](C)C[C@@H]1C [FLC-00391-1] | 33.0 | 108 nM | 3090 nM | 1.2 | 5870 nM | 0.6 | 5150 nM | 0.69 | 3570 nM | 1330 nM | 2.7 | 584 nM | 6.1 | 10.2 | 349 nM | 
2 | CC[C@@H](C(=O)[C@@H](C)[C@@H](O)[C@H](C)[C@@H]1O[C@@H]([C@@H](CC)C(=O)O)CC[C@@H]1C)[C@H]1O[C@]2(C=C[C@@H](NC(=O)OC(CCl)CCl)[C@]3(CC[C@@](C)([C@H]4CC[C@](O)(CC)[C@H](C)O4)O3)O2)[C@H](C)C[C@@H]1C [FLC-00440-1•Na] | 26.1 | 4.41 nM | 43.6 nM | 2.6 | 130 nM | 0.9 | 60.2 nM | 1.91 | 115 nM | 400 nM | 0.3 | 9.5 nM | 12.1 | 32.6 | 3.52 nM | 
3 | CC[C@@H](C(=O)[C@@H](C)[C@@H](O)[C@H](C)[C@@H]1O[C@@H]([C@@H](CC)C(=O)O)CC[C@@H]1C)[C@H]1O[C@]2(C=C[C@@H](NC(=O)OCC(F)(F)F)[C@]3(CC[C@@](C)([C@H]4CC[C@](O)(CC)[C@H](C)O4)O3)O2)[C@H](C)C[C@@H]1C [FLC-00395-1•Na] | 43.8 | 1.78 nM |  | 2.4 |  | 1.6 |  | 0.65 |  |  | 0.8 |  | 2.1 | 177.2 | 0.44 nM | IC50 ([2]; Homo sapiens, MIA PaCa-2, read-out: IC50 (nM) MIA PaCa-2): 33.1 nM; IC50 (Hs294T (human melanoma); Homo sapiens): 47.3 nM; IC50 ([3]; Homo sapiens, NCI-H358, read-out: IC50 (nM) NCI-H358): 121 nM; IC50 ([4]; Mus musculus, BALB/3T3, read-out: IC50 (nM) BALB3T3 normal cells): 78 nM; IC50 ([5]; Homo sapiens, SNU-16, read-out: IC50 (nM) SNU-16): 104 nM; IC50 ([6]; Homo sapiens, PLC-PRF-5, read-out: IC50 (nM) PLC/PRF/5): 37.5 nM
4 | CC[C@@H](C(=O)[C@@H](C)[C@@H](O)[C@H](C)[C@@H]1O[C@@H]([C@@H](CC)C(=O)O)CC[C@@H]1C)[C@H]1O[C@]2(C=C[C@@H](NC(=O)C(N)=O)[C@]3(CC[C@@](C)([C@H]4CC[C@](O)(CC)[C@H](C)O4)O3)O2)[C@H](C)C[C@@H]1C [FLC-00376-1•Na] | 10.6 | 436 nM | 1850 nM | 2.5 |  |  | 5310 nM | 0.87 | 4640 nM |  |  | 1360 nM | 3.4 | 7.0 | 663 nM | 
5 | CC[C@@H](C(=O)[C@@H](C)[C@@H](O)[C@H](C)[C@@H]1O[C@@H]([C@@H](CC)C(=O)O)CC[C@@H]1C)[C@H]1O[C@]2(C=C[C@@H](NC(=O)OCCCCCCCl)[C@]3(CC[C@@](C)([C@H]4CC[C@](O)(CC)[C@H](C)O4)O3)O2)[C@H](C)C[C@@H]1C [FLC-00444-1•Na] | 98.9 | 1.5 nM | 21.3 nM | 6.9 | 627 nM | 0.2 | 53.7 nM | 2.75 | 148 nM | 105 nM | 1.4 | 4 nM | 36.9 | 98.9 | 1.5 nM | 
6 | CC[C@@H](C(=O)[C@@H](C)[C@@H](O)[C@H](C)[C@@H]1O[C@@H]([C@@H](CC)C(=O)O)CC[C@@H]1C)[C@H]1O[C@]2(C=C[C@@H](NC(=O)Nc3ccc(Cl)c(Cl)c3)[C@]3(CC[C@@](C)([C@H]4CC[C@](O)(CC)[C@H](C)O4)O3)O2)[C@H](C)C[C@@H]1C [FLC-00370-1•Na] | 134.5 | 32.7 nM | 489 nM | 9.0 | 1860 nM | 2.4 | 826 nM | 5.33 | 4400 nM | 1520 nM | 2.9 | 144 nM | 30.5 | 106.9 | 41.2 nM | 
